Test results from US20170014375A1, “PHARMACEUTICAL COMPOSITION COMPRISING EFFECTIVE DOSE OF POMIFERIN FOR TREATING CANCERS” (Macau University of Science and Technology, priority 2015, published 2017).

Key:
[1] = test system: AMPK-mTOR signaling in HeLa cancer cells; experiment: Western blot of mTOR signaling marker proteins (P-AMPK, P-p70S6K); assay type: cell-based, human; conditions: FIG. 3A
Experimental: HeLa cancer cells treated with indicated time and concentrations of pomiferin are harvested and lysed in RIPA buffer (Cell Signaling). The cell lysates are then resolved by SDS-PAGE. After electrophoresis, the proteins from SDS-PAGE are transferred to nitrocellulose membrane which is then blocked with 5% non-fat dried milk for 60 minutes. The membrane is then incubated with P-p70S6K, p70S6K, P-AMPK, AMPK and actin primary antibodies (1:1000) in TBST overnight at 4° C. respectively. After that, the membrane is further incubated with HRP-conjugated secondary antibodies for 60 minutes. Finally, protein bands are visualized by using the ECL Western Blotting Detection Reagents (Invitrogen).

[2] = test system: Atg7 wild-type (Atg7+/+) mouse embryonic fibroblasts; experiment: Annexin V/PI flow cytometry cell death, Atg7+/+ MEFs; assay type: cell-based; conditions: 2 μM, 24 h, FIG. 6B
Experimental: Cell viability is measured using an annexin V staining kit (BD Biosciences, San Jose, Calif., USA). Briefly, Atg7 wild-type (Atg7+/+ or Atg7-wt) and Atg7 deficient (Atg7−/− or Atg7-ko) mouse embryonic fibroblasts (MEFs) are treated with the 2 μM pomiferin for 24 h. Cells are then harvested and analysed by multiparametric flow cytometry using FITC-Annexin V and Propidium iodide staining (BD Biosciences, San Jose, Calif., USA) according to the manufacturer's instructions. Flow cytometry is then carried out using a FACSCalibur flow cytometer (BD Biosciences, San Jose, Calif., USA). Data acquisition and analysis is performed with CellQuest (BD Biosciences, San Jose, Calif., USA). Data are obtained from three independent experiments.

[3] = test system: Bax-Bak wild-type mouse embryonic fibroblasts; experiment: MTT cytotoxicity assay, Bax-Bak WT MEFs; assay type: cell-based; conditions: Fibroblast, 72 h, 3 days, read-out: Means of IC50
Experimental: (§1) The test compound of pomiferin is dissolved in DMSO at a final concentration of 100 mmol/L and stored at −20° C. Cytotoxicity is assessed using the 3-(4,5-dimethylthiazol-2-yl)-2,5-diphenyltetrazolium bromide assay as previously described^29. 2500 of caspase wild-type (caspase WT), caspase-3 deficient (caspase 3KO), caspase-7 deficient (caspase 7KO), caspase-3/-7 deficient (caspase 3/7 DKO), caspase-8 deficient (caspase 8KO), Bax-Bak wild-type (Bak-Bak WT) and Bax-Bak double knock out (Bak-Bak DKO) mouse embryonic fibroblasts (MEFs) are seeded on 96-well plates per well. After overnight pre-incubation, the cells are exposed to different concentrations of pomiferin (namely 100, 50, 25, 12.5, 6.25, 3.125, 1.5625, 0.78, 0.39, 0.195, 0.079, 0.039 μmol/L) for 3 days. Subsequently, 10 μL of MTT reagents is added to each well and incubated at 37° C. for 4 hours, followed by the addition of 100 μL solubilization buffer (10% SDS in 0.01 mol/L HCl) and overnight incubation. Absorbance at 585 nm is determined from each well on the following day. The percentage of cell viability is calculated using the following formula: Cell viability (%)=Cells numbertreated/Cells numberDMSO control×100. Data is obtained from three independent experiments.

[4] = test system: Hep3B, HepG2, H1299, MCF-7, A549 cancer cells and normal human hepatocyte (LO2); experiment: Endogenous LC3 puncta immunofluorescence in cancer and normal cells; assay type: cell-based; conditions: 10 μM, FIG. 2
Experimental: The detection of endogenous LC3 puncta formation is conducted using immunofluorescence staining method as described below. In brief, pomiferin-treated cancer cells (Hep3B, HepG2, H1299, MCF-7 and A549) or normal human hepatocyte (LO2) on cover slips are fixed with 4% paraformaldehyde (Sigma) for 20 min at room temperature and then rinsed with PBS. Immerse coverslips in methanol at room temperature for 2 min. After ishing with PBS, the cells are then incubated with anti-LC3 (1:200) in TBST (100 mM Tris HCl, pH 7.5, 150 mM NaCl, 0.05% Tween 20 and 5% BSA) overnight at 4. […] The coverslips are then mounted with FluorSave™ mounting media (Calbiochem, San Diego, Calif., USA) for fluorescence imaging and localization of LC3 autophagosomes are captured under the API Delta Vision Live-cell Imaging System (Applied Precision Inc., GE Healthcare Company, Washington, USA). To quantify autophagy, guidelines are followed to monitor autophagy^20, the percentage of cells with punctuate LC3 immunofluorescence staining is calculated by counting the number of the cells showing the punctuate pattern of LC3 fluorescence (>10 dots/cell) in immunofluorescence positive cells over the total number of cells in the same field. A minimum of 1000 cells from randomly selected fields are scored.

[5] = test system: caspase-3 deficient (caspase 3KO) mouse embryonic fibroblasts; experiment: MTT cytotoxicity assay, caspase 3KO MEFs; assay type: cell-based; conditions: Fibroblast, 72 h, 3 days, read-out: Means of IC50
Experimental: as §1

[6] = test system: A549 (human lung cancer) cells; experiment: MTT cytotoxicity assay, A549; assay type: cell-based; conditions: 72 h, 3 days, read-out: Means of IC50
Experimental: Pomiferin is dissolved in DMSO at a final concentration of 100 mmol/L and stored at −20° C. Cytotoxicity is assessed using the 3-(4,5-dimethylthiazol-2-yl)-2,5-diphenyltetrazolium bromide assay. 4000-8000 HeLa (human cervical cancer), MCF-7 (human breast cancer), HepG2 and Hep3B (human liver cancer), H1299 and A549 (human lung cancer), LNCap (human prostate cancer) and LLC-1 (mouse Lewis lung carcinoma) cells are seeded on 96-well plates per well. After overnight pre-incubation, the cells are exposed to different concentrations of pomiferin ([…]) for 3 days. Subsequently, 10 μL of MTT reagents is added to each well and incubated at 37° C. for 4 hours followed by the addition of 100 μL solubilization buffer (10% SDS in 0.01 mol/L HCl) and overnight incubation. Absorbance at 585 nm is determined from each well the next day. The percentage of cell viability is calculated using the following formula: Cell viability (%)=Cells number treated/Cells number DMSO control×100. Data are obtained from three independent experiments.

[7] = biological target: T1, Ca2+ ATPase (SERCA1A) (Oryctolagus cuniculus, UniProt P04191); experiment: Measurement of SERCA activity (enzyme-coupled ATPase assay); assay type: biochemical; conditions: rabbit skeletal muscle SR membranes; FIG. 5B
T1 construct: (SERCA1A) is prepared from female rabbit hind leg muscle; from tissue; host or cells: female rabbit hind leg (skeletal) muscle, sarcoplasmic reticulum membranes
T1 sequence (P04191 1-994 isoform P04191-2): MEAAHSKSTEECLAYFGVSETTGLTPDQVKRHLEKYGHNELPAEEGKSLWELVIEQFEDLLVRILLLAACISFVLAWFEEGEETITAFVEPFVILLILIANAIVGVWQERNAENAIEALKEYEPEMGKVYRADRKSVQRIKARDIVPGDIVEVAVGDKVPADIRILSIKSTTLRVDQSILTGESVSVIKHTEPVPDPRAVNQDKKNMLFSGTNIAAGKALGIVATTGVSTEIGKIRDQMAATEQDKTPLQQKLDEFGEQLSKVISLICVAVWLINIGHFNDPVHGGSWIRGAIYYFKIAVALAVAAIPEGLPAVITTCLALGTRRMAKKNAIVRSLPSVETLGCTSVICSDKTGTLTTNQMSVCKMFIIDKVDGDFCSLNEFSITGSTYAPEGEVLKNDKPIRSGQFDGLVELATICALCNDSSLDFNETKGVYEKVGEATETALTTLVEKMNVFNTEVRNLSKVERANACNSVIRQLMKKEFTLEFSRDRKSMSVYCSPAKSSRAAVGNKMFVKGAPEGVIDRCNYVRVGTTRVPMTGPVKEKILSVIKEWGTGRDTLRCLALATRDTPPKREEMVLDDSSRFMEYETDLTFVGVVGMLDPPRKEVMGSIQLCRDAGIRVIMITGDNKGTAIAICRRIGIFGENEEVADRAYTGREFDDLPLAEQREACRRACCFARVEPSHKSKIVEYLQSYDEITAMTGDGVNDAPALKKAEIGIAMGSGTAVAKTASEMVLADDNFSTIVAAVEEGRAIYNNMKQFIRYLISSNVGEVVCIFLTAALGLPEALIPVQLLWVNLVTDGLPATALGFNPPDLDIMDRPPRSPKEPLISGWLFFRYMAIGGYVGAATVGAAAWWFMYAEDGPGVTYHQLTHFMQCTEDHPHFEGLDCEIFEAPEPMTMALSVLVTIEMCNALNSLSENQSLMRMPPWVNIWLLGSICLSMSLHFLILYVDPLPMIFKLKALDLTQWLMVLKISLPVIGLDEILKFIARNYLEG
Experimental: Purified Ca^2+ ATPase (SERCA1A) is prepared from female rabbit hind leg muscle^27. ATPase activity is determined using the enzyme-coupled method utilizing pyruvate kinase and lactate dehydrogenase as previously described in Michelangeli et al. (1990). All SERCA inhibition data are fitted to the allosteric dose versus effect equation using Fig P (Biosoft):
Activity=minimum activity+(maximum activity−minimum activity)/(1+([I]/IC50)P).

CC(C)=CCc1c2c(c3occ(-c4ccc(O)c(O)c4)c(=O)c3c1O)C=CC(C)(C)O2 [pomiferin]
p70S6K phosphorylation (mTOR downstream) [1]: concomitant reduction | phosphorylation of AMPK [1]: activate the phosphorylation of AMPK in a time dependent manner | cell death (in words) [2]: markedly induce cell death | IC50 [3]: 440 nM | TRITC-LC3 puncta formation [4]: induces TRITC-LC3 puncta formation in all tested cancer and normal cells | IC50 [5]: 2130 nM | IC50 [6]: 20.3 µM | SERCA1A pump inhibition [7]: inhibited by pomiferin in a dose-dependent manner
